Data published in patent EP0636624A1, “Thiazole derivatives as lipoxygenase inhibitors” (ZENECA LIMITED, priority 1993, dated 1995).

Tests used:
hepatic enzymes = assay: Auto-induction on repeated dosing (fall in C max / AUC); format: in vivo; conditions: repeated dosing to a warm-blooded animal
Source text: The result is a decrease on repeat dosing of the quantity of the compound present in the animal's blood stream as shown, for example, by a decrease in the maximum concentration achieved (C max) or, for example, a decrease in the exposure of the animal to the compound as measured by the area under the curve (AUC) of a plot of the concentration of the compound in the blood stream versus time after dosing.

5-LO [1] = target: T1, 5-LO (Homo sapiens, UniProt P09917); assay: Test a): in vitro heparinised human blood challenged with calcium ionophore A23187, LTB4 radioimmunoassay; format: cell-based; conditions: heparinised human blood, A23187 challenge; read-out: IC₅₀ against LTB₄ in test a)
T1 construct: incubating a test compound with heparinised human blood, prior to challenge with the calcium ionophore A23187; endogenous in cells; host or cells: blood cells of heparinised human whole blood
T1 sequence (P09917 1-674): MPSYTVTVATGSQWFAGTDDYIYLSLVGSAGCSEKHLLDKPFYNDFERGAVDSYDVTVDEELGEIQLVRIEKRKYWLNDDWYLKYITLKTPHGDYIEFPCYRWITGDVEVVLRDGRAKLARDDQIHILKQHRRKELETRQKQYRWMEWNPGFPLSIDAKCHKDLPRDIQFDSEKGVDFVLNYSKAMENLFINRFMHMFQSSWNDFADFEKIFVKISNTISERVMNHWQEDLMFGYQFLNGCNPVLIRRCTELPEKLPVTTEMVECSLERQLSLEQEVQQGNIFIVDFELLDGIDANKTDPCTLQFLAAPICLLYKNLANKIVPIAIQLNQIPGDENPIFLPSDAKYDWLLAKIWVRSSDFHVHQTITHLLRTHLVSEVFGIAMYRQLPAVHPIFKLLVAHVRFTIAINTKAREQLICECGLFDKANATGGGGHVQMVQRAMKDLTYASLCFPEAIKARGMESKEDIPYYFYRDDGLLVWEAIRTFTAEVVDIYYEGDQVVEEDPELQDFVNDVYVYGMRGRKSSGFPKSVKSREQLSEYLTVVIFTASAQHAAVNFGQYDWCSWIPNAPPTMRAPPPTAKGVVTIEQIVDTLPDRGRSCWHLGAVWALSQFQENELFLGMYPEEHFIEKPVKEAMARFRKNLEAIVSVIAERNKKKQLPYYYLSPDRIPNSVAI
Source text: As stated previously, the compounds of the formula I are inhibitors of the enzyme 5-LO. […] J. Pharmacol. 1985, 84, 34P) which involve the use of a protein-LTB₄ conjugate produced using the procedure of Young et alia (Prostaglandins, 1983, 26(4), 605-613). The effects of a test compound on the enzyme cyclooxygenase (which is involved in the alternative metabolic pathway for arachidonic acid and gives rise to prostaglandins, thromboxanes and related metabolites) may be measured at the same time using the specific radioimmunoassay for thromboxane B₂(TxB₂) described by Carey and Forder (see above). This test provides an indication of the effects of a test compound against 5-LO and also cyclooxygenase in the presence of blood cells and proteins. It permits the selectivity of the inhibitory effect on 5-LO or cyclooxygenase to be assessed. • b) An ex vivo assay system, which is a variation of test a) above, involving administration to a group of rats of a test compound (usually orally as the suspension produced when a solution of the test compound in dimethylsulphoxide is added to carboxymethylcellulose), blood collection, heparinisation, challenge with A23187 and radioimmunoassay of LTB₄ and TxB₂. […]

5-LO [2] = assay: Test c): in vivo zymosan-induced LTB4 liberation in rat subcutaneous air pouch; design: species or system male rats; conditions: oral, approximate value, 180 min

Row | IC50 (5-LO [1]) | SMILES | auto-induction (hepatic enzymes) | IC₅₀ against LTB₄ in test c) (5-LO [2])
1 |  | COC1(c2ccc(Sc3ccc4c(c3)CCC(=O)N4C)s2)CCOCC1 [4-methoxy-4-[5-(1-methyl-2-oxo-1,2,3,4-tetrahydroquinolin-6-ylthio)-thien-2-yl]tetrahydropyran] | possesses the undesirable property of auto-induction | 
2 | 60 nM | CO[C@]1(c2cnc(Sc3ccc4c(c3)CCC(=O)N4C)s2)CCO[C@@H](C)C1 [Example 3, (2S,4R)-4-methoxy-2-methyl-4-[2-(1-methyl-2-oxo-1,2,3,4-tetrahydroquinolin-6-ylthio)thiazol-5-yl]tetrahydropyran] |  | approximately 0.2 mg/kg
